Assays:
[1] = tested on: advanced or metastatic cholangiocarcinoma with FGFR genetic alterations; test: Phase II study of oral BGJ398 in advanced or metastatic cholangiocarcinoma, Patient 5010004 (RECIST v1.1); type: in vivo, human; conditions: Patient 5010004, oral erdafitinib prior to study treatment
Experimental: This is a multi-center, open label, single arm phase II study evaluating BGJ398 anti-tumor activity in advanced or metastatic cholangiocarcinoma patients with FGFR genetic alterations. 125 mg of oral, monotherapy BGJ398 is administered once daily for the first 3 weeks (21 days) of each 28-day cycle. The starting dose of 125 mg may be reduced to 100 mg, 75 mg, or 50 mg. The treatment period begins on Cycle 1, Day 1, and continues until disease progression, unacceptable toxicity, withdrawal of informed consent, or death. Patients are evaluated for tumor response radiographically every 8 weeks until disease progression or discontinuation from study using RECIST v1.1 criteria.
Adult patients with histologically or cytologically confirmed advanced or metastatic cholangiocarcinoma with FGFR2 gene fusions or translocations or other FGFR genetic alteration who have evidence of radiologic progression following a cisplatin- and gemcitabine-containing regimen for advanced disease or a gemcitabine-containing regimen for those who are considered intolerant to cisplatin are enrolled. Up to approximately 160 adult patients over age 18, both male and female are enrolled. Three cohorts of patients comprise the study population: • Cohort 1: ˜120 patients, 108 with FGFR2 gene fusions or translocations and 12 with other FGFR genetic alterations. • Cohort 2: ˜20 patients with FGFR genetic alterations other than FGFR2 gene fusions or translocations. • Cohort 3: Up to ˜20 patients with FGFR2 gene fusions or translocations who have received a prior FGFR inhibitor. Main Inclusion Criteria
Tumor response according to RECIST v1.1, and survival.
During treatment with infigratinib, the patient's response was determined by follow-up assessments conducted by a local investigator per RECIST v1.1.

[2] = Tolerability (body weight, clinical observations) in Vex-MR086M1 xenograft study; type: in vivo, Mouse (Mus musculus)
Experimental: (§1) All animals were weighed at the same time as tumor size measurement. A Relative Body Weight loss (RBW loss) was considered as adverse effect of the treatment.
(§2) Mice were observed every day for physical appearance, behavior and clinical changes.
(§3) Relative Body Weight (RBW) is calculated for each measurement by dividing the body weight by the body weight at the start of treatment.
(§4) Individual Body weight loss percent (% BWL)=100−(BWX/BW0×100), where BWX is the BW at any day during the treatment and BW0 is the BW on the day of inclusion.
(§5) Mean Body weight loss percent (% BWL)=100−(mean BWX/mean BW0×100), where BWX is the mean BW at any day during the treatment and BW0 is the mean BW on the day of inclusion.

[3] = Tolerability (body weight, clinical observations) in UREx-MR2057PD-AR xenograft study; type: in vivo, Mouse (Mus musculus)
Experimental: as §1, §2, §3, §4, §5

[4] = tested on: cholangiocarcinoma; conditions: ABC-02 trial (Valle et al., 2010); cited from earlier work

Row | Compound | best response [1] | time to discontinuation due to radiological disease progression [1] | clinical observations ([2]; erdafitinib 15 mg/kg PO qdx21) | mean body weight loss ([2]; erdafitinib 15 mg/kg PO qdx21) | tolerability ([2]; erdafitinib 15 mg/kg PO qdx21) | maximum individual body weight loss ([2]; erdafitinib 15 mg/kg PO qdx21, on D17) [%] | clinical observations ([3]; erdafitinib 15 mg/kg PO qdx21) | maximum mean body weight loss ([3]; erdafitinib 15 mg/kg PO qdx21) | tolerability ([3]; erdafitinib 15 mg/kg PO qdx21) | maximum individual body weight loss ([3]; erdafitinib 15 mg/kg PO qdx21, on D3) [%] | median overall survival [4] [months] | median progression-free survival [4] [months]
1 | COc1cc(OC)cc(N(CCNC(C)C)c2ccc3ncc(-c4cnn(C)c4)nc3c2)c1 [Erdafitinib, reference compound] | progressive disease | approximately 2 months | No relevant observable signs were reported | no mean body weight loss | well tolerated except for 1 mouse | 10.6 | No relevant observable signs were reported | no maximum mean body weight loss | well tolerated | 4.9 | – | –
2 | Nc1ccn([C@@H]2O[C@H](CO)[C@@H](O)C2(F)F)c(=O)n1 [gemcitabine] | – | – | – | – | – | – | – | – | – | – | 8.1 | 5.0

— patent US12357632B2, “Methods of treating cholangiocarcinoma” (QED Therapeutics, Inc., priority 2019, dated 2025)
